Legend:
guinea pigs = assay: Cough relieving against 15% citric acid spray in guinea pigs, one hour after administration; format: in vivo; conditions: Cavia porcellus, im, 1 h, one hour after 50 mg/kg i.m., % related to the control, read-out: Cough inhibition Q %
Protocol: Q = Cough relieving induced by 15% citric acid spray in guinea pigs one
hour after administration of the substances (50 mg/kg, i.m.) expressed in
% related to the control.

in vivo = conditions: mouse
[1] = General pharmacological activity (cough relieving, bronchodilatory, antiasthmatic, antiinflammatory); conditions: in vivo
[2] = tested on: rat paw carrageenin oedema; assay: Rat paw carrageenin oedema test; format: in vivo; conditions: i.m. administration, compared with indomethacin
Text: Another special group of the compounds according to the invention are the compounds having an alkyl amino group in place of R1. […] This activity is important in cough relieving accompanied by inflammation in the respiration system.

guinea pig = assay: Bronchial spasm induced by histamine, in vivo according to Konzett and Rossler
Text: (§1) A special group of the compounds of the formula I are those compounds in which R1 stands for alkyl, aralkyl, or aryl. […] Path. […] This activity is significant in relieving cough of the asthmatic type.

[3] = tested on: spasm caused by acetyl choline or serotonine; assay: Spasm caused by acetyl choline or serotonine
Text: as §1

[4] = tested on: trachea stria isolated from rabbit; assay: Bronchial spasm induced by histamine, in vitro on isolated trachea stria
Text: as §1

**Q.** With `CC(C)NCCc1nc(CCn2cnc3c2c(=O)n(C)c(=O)n3C)no1` [(CH2)2 (CH2)2 NHi.Pr] as the compound, how does the inhibition in vivo at 50 mg/kg (guinea pigs) read?
**A.** Its inhibition in vivo at 50 mg/kg is 54.7%.

**Q.** What about the LD50 (in vivo; iv) of the same compound?
**A.** Its LD50 is 200 mg/kg.

**Q.** What about the LD50 (in vivo; po) of the same compound?
**A.** Its LD50 is 1750 mg/kg.

**Q.** For `COc1ccc2c3c1O[C@H]1[C@@H](O)C=C[C@H]4[C@@H](C2)N(C)CC[C@@]341` [Codeine, reference compound], which inhibition in vivo at 50 mg/kg (guinea pigs) is on record?
**A.** Its inhibition in vivo at 50 mg/kg is 50%.

**Q.** What about the LD50 (in vivo; iv) of the same compound?
**A.** Its LD50 is 54 mg/kg.

**Q.** Which inhibition in vivo at 50 mg/kg (guinea pigs) does the source give for `CCN(CC)CCc1nc(Cn2cnc3c2c(=O)n(C)c(=O)n3C)no1` [Example 4, 7-[{5-(2-diethylamino-ethan-1-yl)-1,2,4-oxadiazol-3-yl}-methyl]-theophylline] here?
**A.** The inhibition in vivo at 50 mg/kg was 56.7%.

**Q.** What about the “pharmacological activity in words” value [1] of the same compound?
**A.** The value was “cough relieving and bronchodilatory activity”.

**Q.** And the anti-inflammatory activity [2]?
**A.** The anti-inflammatory activity was “strong (comparable with indomethacin) anti-inflammatory activity”.

**Q.** And the LD50 (in vivo; iv)?
**A.** Its LD50 is 215 mg/kg.

**Q.** And the LD50 (in vivo; po)?
**A.** The LD50 was 1400 mg/kg.

**Q.** What does the source list for `CCCc1nc(Cn2cnc3c2c(=O)n(C)c(=O)n3C)no1` [Example 18]?
**A.** inhibition in vivo at 50 mg/kg (guinea pigs): 51.1%; LD50 (in vivo; iv): 390 mg/kg; LD50 (in vivo; po): 1400 mg/kg

**Q.** Which inhibition in vivo at 50 mg/kg (guinea pigs) does the source give for `Cn1c(=O)c2c(ncn2CCCc2noc(CCN3CCOCC3)n2)n(C)c1=O` here?
**A.** The inhibition in vivo at 50 mg/kg was 47.7%.

**Q.** What about the LD50 (in vivo; iv) of the same compound?
**A.** Its LD50 is 220 mg/kg.

**Q.** What about the LD50 (in vivo; po) of the same compound?
**A.** Its LD50 is 1900 mg/kg.

**Q.** With `CCN(CC)CCc1nc(CCCn2cnc3c2c(=O)n(C)c(=O)n3C)no1` [Example 12, 7-[3-5-(2-diethylamino-ethan-1-yl)-1,2,4-oxadiazol-3-yl-propan-1-yl]-theophylline-maleinate] as the compound, how does the inhibition in vivo at 50 mg/kg (guinea pigs) read?
**A.** The inhibition in vivo at 50 mg/kg was 51.5%.

**Q.** And the LD50 (in vivo; iv)?
**A.** The LD50 was 237 mg/kg.

**Q.** What about the LD50 (in vivo; po) of the same compound?
**A.** Its LD50 is 2250 mg/kg.

**Q.** Which results are given for `CN1CCN(CCc2nc(Cn3cnc4c3c(=O)n(C)c(=O)n4C)no2)CC1`?
**A.** inhibition in vivo at 50 mg/kg (guinea pigs): 54.5%; LD50 (in vivo; iv): 224 mg/kg; LD50 (in vivo; po): 1670 mg/kg

**Q.** Which results are given for `Cc1nc(Cn2cnc3c2c(=O)n(C)c(=O)n3C)no1` [Example 1, 7-[(5-methyl-1,2,4-oxadiazol-3-yl)-methyl]-theophylline]?
**A.** inhibition in vivo at 50 mg/kg (guinea pigs): 54.3%; duration of activity (guinea pig; histamine-induced bronchial spasm, compared with theophylline ethylene diamine): considerably longer than in case of theophylline ethylene diamine; bronchial spasm induced by histamine (in vivo) (guinea pig; in vivo, guinea pig, Konzett and Rossler, histamine): decreases the bronchial spasm induced by histamine; spasm caused by acetyl choline ([3]; acetyl choline): prevents the spasm caused by acetyl choline or serotonine; spasm caused by serotonine ([3]; serotonine): prevents the spasm caused by acetyl choline or serotonine; bronchial spasm induced by histamine (in vitro) [4]: decreases the bronchial spasm induced by histamine

**Q.** What does the source list for `Cn1c(=O)c2c(ncn2Cc2noc(CCN3CCCCC3)n2)n(C)c1=O`?
**A.** inhibition in vivo at 50 mg/kg (guinea pigs): 54.1%; LD50 (in vivo; iv): 240 mg/kg; LD50 (in vivo; po): 1550 mg/kg

**Q.** For `CN1CCN(CCc2nc(CC(O)Cn3cnc4c3c(=O)n(C)c(=O)n4C)no2)CC1` (stereo not shown), which inhibition in vivo at 50 mg/kg (guinea pigs) is on record?
**A.** The inhibition in vivo at 50 mg/kg was 48.6%.

**Q.** And the LD50 (in vivo; iv)?
**A.** The LD50 was 215 mg/kg.

**Q.** What about the LD50 (in vivo; po) of the same compound?
**A.** The LD50 was 1800 mg/kg.

**Q.** What does the source list for `Cn1c(=O)c2c(ncn2CCc2noc(CCN3CCOCC3)n2)n(C)c1=O`?
**A.** inhibition in vivo at 50 mg/kg (guinea pigs): 48.6%; LD50 (in vivo; iv): 217 mg/kg; LD50 (in vivo; po): 2600 mg/kg

**Q.** What does the source list for `Cn1c(=O)c2c(ncn2Cc2noc(CCN3CCOCC3)n2)n(C)c1=O`?
**A.** inhibition in vivo at 50 mg/kg (guinea pigs): 55.4%; LD50 (in vivo; iv): 230 mg/kg; LD50 (in vivo; po): 1530 mg/kg

**Q.** For `c1ccc(C(Cc2noc(CCN3CCCCC3)n2)c2ccccc2)cc1` [Prenoxdiazine, reference compound], which inhibition in vivo at 50 mg/kg (guinea pigs) is on record?
**A.** The inhibition in vivo at 50 mg/kg was 44.5%.

**Q.** What about the LD50 (in vivo; iv) of the same compound?
**A.** The LD50 was 34 mg/kg.

**Q.** And the LD50 (in vivo; po)?
**A.** The LD50 was 920 mg/kg.
